# Test results as given in ChEMBL document CHEMBL1201862, “PubChem BioAssay data set” (2004).
#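 Five concentrations, 48 hours, 96-well plates. GI50 is the concentration that inhibits growth by half.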 Calls of active or inactive are those of the source. No stated cut-off is given here; in the data, active = GI50 up to about 1.1 µM and inactive = higher.
# What was measured:
# Test in all cases: inhibition of tumour cell growth, NCI panel, 48 h
# [1] = test system: 786-0
# [2] = test system: COLO 205
# [3] = test system: HCT-116
# [4] = test system: HL-60
# [5] = test system: HOP-92
# [6] = test system: KM12
# [7] = test system: MCF7
# [8] = test system: NCI-H23
# [9] = test system: NCI/ADR-RES
# [10] = test system: OVCAR-8
# [11] = test system: SF-268
# [12] = test system: SF-539
# [13] = test system: SK-MEL-2
# [14] = test system: T47D
# [15] = test system: U-251
# [16] = test system: LOX IMVI
# [17] = test system: MDA-N
# [18] = test system: A498
# [19] = test system: MDA-MB-231
Compound,GI50 [1],GI50 [2],GI50 [3],GI50 [4],GI50 [5],GI50 [6],GI50 [7],GI50 [8],GI50 [9],GI50 [10],GI50 [11],GI50 [12],GI50 [13],GI50 [14],GI50 [15],GI50 [16],GI50 [17],GI50 [18],GI50 [19]
O=c1ccn(Cc2ccccc2CCl)c(=O)[nH]1,20.7 µM (inactive),27.2 µM (inactive),21.7 µM (inactive),37.2 µM (inactive),57.9 µM (inactive),26.5 µM (inactive),23.6 µM (inactive),20.4 µM (inactive),22.1 µM (inactive),25.9 µM (inactive),25.7 µM (inactive),24 µM (inactive),32.7 µM (inactive),43.9 µM (inactive),29.7 µM (inactive),,,,
CCOC(=O)C(=[N+]=[N-])C(=O)CN1C(=O)C2CC(C)=C(C)CC2C1O (stereo unspecified),> 100 µM (inactive),> 100 µM (inactive),> 100 µM (inactive),> 100 µM (inactive),,> 100 µM (inactive),> 100 µM (inactive),> 100 µM (inactive),> 100 µM (inactive),> 100 µM (inactive),> 100 µM (inactive),> 100 µM (inactive),> 100 µM (inactive),,> 100 µM (inactive),> 100 µM (inactive),> 100 µM (inactive),,
Cc1cc(N(CCC#N)CCC#N)ccc1/C=C1/N=C(c2ccccc2)N(N)C1=O,37.6 µM (inactive),> 100 µM (inactive),> 100 µM (inactive),27 µM (inactive),30 µM (inactive),> 100 µM (inactive),,56.9 µM (inactive),,> 100 µM (inactive),60.1 µM (inactive),60.8 µM (inactive),> 100 µM (inactive),,63.7 µM (inactive),49.3 µM (inactive),,> 100 µM (inactive),
O=c1c2ccc(S(=O)(=O)c3ccc4c(=O)n5c6ccccc6nc5c5cccc3c45)c3cccc(c32)c2nc3ccccc3n12,29.5 µM (inactive),> 100 µM (inactive),> 100 µM (inactive),,,> 100 µM (inactive),> 100 µM (inactive),96.6 µM (inactive),> 100 µM (inactive),47.9 µM (inactive),33.5 µM (inactive),28.7 µM (inactive),21.3 µM (inactive),36.6 µM (inactive),9.06 µM (inactive),> 100 µM (inactive),,,19.4 µM (inactive)
CCCCCCCCCCCCCCCCNc1ccn(C2CC(OP(=O)(O)OCC3OC(n4cc(CC)c(=O)[nH]c4=O)CC3O)C(CO)O2)c(=O)n1 (stereo unspecified),83.2 µM (inactive),26 µM (inactive),50.1 µM (inactive),4.66 µM (inactive),48.4 µM (inactive),15.7 µM (inactive),32.5 µM (inactive),34.6 µM (inactive),27.9 µM (inactive),20 µM (inactive),15.3 µM (inactive),18.4 µM (inactive),19.4 µM (inactive),44.2 µM (inactive),26.8 µM (inactive),44.7 µM (inactive),,> 100 µM (inactive),35.2 µM (inactive)
O=C1C(=O)C(CCCO)(CCCO)CCCCCCCCC1(CCCO)CCCO,> 100 µM (inactive),> 100 µM (inactive),32 µM (inactive),12.4 µM (inactive),39.7 µM (inactive),78.5 µM (inactive),55.1 µM (inactive),> 100 µM (inactive),> 100 µM (inactive),> 100 µM (inactive),38.1 µM (inactive),80.4 µM (inactive),46.8 µM (inactive),87.7 µM (inactive),66.5 µM (inactive),64.7 µM (inactive),86.9 µM (inactive),> 100 µM (inactive),
COc1ccc2c(c1)OCc1c-2oc2ccccc2c1=O,45.7 µM (inactive),> 100 µM (inactive),> 100 µM (inactive),,> 100 µM (inactive),> 100 µM (inactive),> 100 µM (inactive),0.0895 µM (active),> 100 µM (inactive),> 100 µM (inactive),69.3 µM (inactive),40.1 µM (inactive),> 100 µM (inactive),,35.8 µM (inactive),> 100 µM (inactive),> 100 µM (inactive),> 100 µM (inactive),30.1 µM (inactive)
CC(C)=NN/C=N\C(C#N)=C(/N)C#N,> 100 µM (inactive),> 100 µM (inactive),78.9 µM (inactive),> 100 µM (inactive),,,> 100 µM (inactive),> 100 µM (inactive),> 100 µM (inactive),> 100 µM (inactive),> 100 µM (inactive),> 100 µM (inactive),> 100 µM (inactive),,> 100 µM (inactive),,,,
CC1=CCC2CC1NC(=O)CCOCCC(=O)NC2(C)C (stereo unspecified),> 100 µM (inactive),> 100 µM (inactive),> 100 µM (inactive),,> 100 µM (inactive),> 100 µM (inactive),> 100 µM (inactive),> 100 µM (inactive),> 100 µM (inactive),> 100 µM (inactive),> 100 µM (inactive),> 100 µM (inactive),> 100 µM (inactive),,> 100 µM (inactive),> 100 µM (inactive),> 100 µM (inactive),> 100 µM (inactive),> 100 µM (inactive)
CN(O)C(=O)c1ccccc1,> 100 µM (inactive),> 100 µM (inactive),> 100 µM (inactive),> 100 µM (inactive),> 100 µM (inactive),> 100 µM (inactive),,> 100 µM (inactive),,> 100 µM (inactive),> 100 µM (inactive),> 100 µM (inactive),,,> 100 µM (inactive),> 100 µM (inactive),,,
c1ccc(C(NC2CCCCC2NCCNC2CCCCC2NC(c2ccccc2)(c2ccccc2)c2ccccc2)(c2ccccc2)c2ccccc2)cc1 (stereo unspecified),,> 100 µM (inactive),20.1 µM (inactive),,13.9 µM (inactive),57.1 µM (inactive),17.7 µM (inactive),20.9 µM (inactive),,29.9 µM (inactive),21.3 µM (inactive),44 µM (inactive),26.1 µM (inactive),11.7 µM (inactive),13.9 µM (inactive),19 µM (inactive),,22.6 µM (inactive),> 100 µM (inactive)
Nc1nc(Cl)c(/C=N\O)c(NCC2(CO)CCC2)n1,41.7 µM (inactive),30.3 µM (inactive),13.7 µM (inactive),> 10 µM (inactive),19.6 µM (inactive),6.25 µM (inactive),25.2 µM (inactive),1.73 µM (inactive),28.5 µM (inactive),36.2 µM (inactive),> 100 µM (inactive),33.8 µM (inactive),,,> 100 µM (inactive),9.95 µM (inactive),44.4 µM (inactive),19.1 µM (inactive),51.2 µM (inactive)
O=C1OC(c2ccccc2)(c2ccccc2)c2ccc3ccc(F)cc3c21,> 100 µM (inactive),> 100 µM (inactive),27 µM (inactive),9.4 µM (inactive),2.66 µM (inactive),> 100 µM (inactive),,52.8 µM (inactive),,> 100 µM (inactive),> 100 µM (inactive),> 100 µM (inactive),> 100 µM (inactive),,77.1 µM (inactive),60.3 µM (inactive),,> 100 µM (inactive),
COc1ccc(-c2cc(-c3ccc(Nc4ccnc5cc(Cl)ccc45)cc3)[nH]c(=O)c2C#N)cc1,> 100 µM (inactive),> 100 µM (inactive),> 100 µM (inactive),> 100 µM (inactive),> 100 µM (inactive),2.86 µM (inactive),> 100 µM (inactive),> 100 µM (inactive),> 100 µM (inactive),> 100 µM (inactive),> 100 µM (inactive),> 100 µM (inactive),> 100 µM (inactive),> 100 µM (inactive),> 100 µM (inactive),> 100 µM (inactive),,> 100 µM (inactive),> 100 µM (inactive)
C=C1C2Oc3ccccc3C1N(c1ccccc1)O2 (stereo unspecified),41.5 µM (inactive),48.5 µM (inactive),20.3 µM (inactive),30.3 µM (inactive),,17.9 µM (inactive),,> 10 µM (inactive),,17 µM (inactive),28.8 µM (inactive),23.8 µM (inactive),9.14 µM (inactive),,27.2 µM (inactive),13.7 µM (inactive),,,
CCOC(=O)C1CSCCSC1,,> 100 µM (inactive),> 100 µM (inactive),,> 100 µM (inactive),> 100 µM (inactive),> 100 µM (inactive),> 100 µM (inactive),> 100 µM (inactive),> 100 µM (inactive),> 100 µM (inactive),,,,> 100 µM (inactive),> 100 µM (inactive),> 100 µM (inactive),44.3 µM (inactive),> 100 µM (inactive)
Cc1cc(NC(=O)C(=O)Cc2cnc3ccccc3n2)c(S(=O)(=O)O)cc1Cl,> 100 µM (inactive),> 100 µM (inactive),> 100 µM (inactive),> 100 µM (inactive),> 100 µM (inactive),> 100 µM (inactive),> 100 µM (inactive),> 100 µM (inactive),> 100 µM (inactive),> 100 µM (inactive),> 100 µM (inactive),> 100 µM (inactive),> 100 µM (inactive),> 100 µM (inactive),> 100 µM (inactive),> 100 µM (inactive),,> 100 µM (inactive),> 100 µM (inactive)
C=C1CCC([N+](=O)[O-])[C@](C)(N=O)CC[C@@H]2C1CC2(C)C (stereo partly specified),20.6 µM (inactive),28.1 µM (inactive),14.8 µM (inactive),5.43 µM (inactive),19.9 µM (inactive),24.5 µM (inactive),16.6 µM (inactive),17.2 µM (inactive),22.8 µM (inactive),22.3 µM (inactive),31.3 µM (inactive),,> 10 µM (inactive),,21.4 µM (inactive),16.1 µM (inactive),11.6 µM (inactive),,
